Laboratory results reported in PubChem BioAssay AID192 (DTP/NCI, 2004).
Values joined by “and” are separate entries in the source; they are usually repeats but may differ in a detail not shown here. Equal entries are not always repeated. Toxic doses and inconclusive results are not listed.

Test system: BDF1 mice, B16 melanoma ip, median survival T/C
Test: NCI In Vivo Anticancer Drug Screen. Data for tumor model B16 Melanoma (intraperitoneal) in B6D2F1 (BDF1) mice
Settings: endpoint: median survival time, higher = longer survival
Method in brief: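 Read-out: survival or tumor size, given as treated/control ratio. Controls received vehicle only; animals bore transplantable tumors.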

[1] = dose: 12.5 mg/kg/injection, schedule: Q01DX009 (ip), vehicle: Klucel (hydroxypropylcellulose) (HPC)

Structure (SMILES): CC1(C)N=C(N)N=C(N)N1c1cccc(C#N)c1
- T/C (dose: 25.0 mg/kg/injection, schedule: Q01DX005 (ip), vehicle: saline): 95 % of control
- T/C (dose: 50.0 mg/kg/injection, schedule: Q01DX005 (ip), vehicle: saline): 100 % of control
- T/C (dose: 50.0 mg/kg/injection, schedule: Q04DX003 (ip), vehicle: saline): 115 % of control
- T/C (dose: 100.0 mg/kg/injection, schedule: Q01DX005 (ip), vehicle: saline): 104 % of control
- T/C (dose: 100.0 mg/kg/injection, schedule: Q04DX003 (ip), vehicle: saline): 93 % of control

Structure (SMILES): COC12C(COC(N)=O)C3=C(C(=O)C(C)=C(N)C3=O)N1CC1C2N1C (stereo not drawn)
- T/C (dose: 0.25 mg/kg/injection, schedule: Q01DX009 (ip), vehicle: saline): 120 % of control
- T/C (dose: 0.5 mg/kg/injection, schedule: Q01DX009 (ip), vehicle: saline): 123 % of control
- T/C (dose: 1.0 mg/kg/injection, schedule: Q01DX009 (ip), vehicle: saline): 114 % of control
- T/C (dose: 2.0 mg/kg/injection, schedule: Q01DX009 (ip), vehicle: Klucel (hydroxypropylcellulose) (HPC)): 106 % of control
- T/C (dose: 4.0 mg/kg/injection, schedule: Q01DX009 (ip), vehicle: Klucel (hydroxypropylcellulose) (HPC)): 124 % of control

Structure (SMILES): COc1ccc(/C=C(\NC(C)=O)C(=O)O)cc1
- T/C (dose: 100.0 mg/kg/injection, schedule: Q04DX003 (ip), vehicle: Klucel (hydroxypropylcellulose) (HPC)): 97 % of control
- T/C (dose: 200.0 mg/kg/injection, schedule: Q04DX003 (ip), vehicle: Klucel (hydroxypropylcellulose) (HPC)): 105 % of control
- T/C (dose: 400.0 mg/kg/injection, schedule: Q04DX003 (ip), vehicle: Klucel (hydroxypropylcellulose) (HPC)): 91 % of control

Structure (SMILES): CCCCCCCC(=O)CCC
- T/C (dose: 100.0 mg/kg/injection, schedule: Q01DX009 (ip), vehicle: Klucel (hydroxypropylcellulose) (HPC)): 105 % of control
- T/C (dose: 200.0 mg/kg/injection, schedule: Q01DX009 (ip), vehicle: Klucel (hydroxypropylcellulose) (HPC)): 96 % of control

Structure (SMILES): O=NNc1ccccn1
- T/C (dose: 3.12 mg/kg/injection, schedule: Q01DX009 (ip), vehicle: saline): 116 % of control
- T/C (dose: 6.25 mg/kg/injection, schedule: Q01DX009 (ip), vehicle: saline): 119 % of control
- T/C (dose: 12.5 mg/kg/injection, schedule: Q01DX009 (ip), vehicle: saline): 156 % of control and 165 % of control

Structure (SMILES): O=[N+]([O-])c1cc(F)cc([N+](=O)[O-])c1O
- T/C [1]: 124 % of control
- T/C (dose: 25.0 mg/kg/injection, schedule: Q01DX009 (ip), vehicle: Klucel (hydroxypropylcellulose) (HPC)): 103 % of control
- T/C (dose: 50.0 mg/kg/injection, schedule: Q01DX009 (ip), vehicle: Klucel (hydroxypropylcellulose) (HPC)): 96 % of control

Structure (SMILES): CCC1(O)CC2CN(CCc3c([nH]c4ccccc34)C(C(=O)OC)(c3cc4c(cc3OC)N(C)C3C(O)(C(N)=O)C(O)C5(CC)C=CCN6CCC43C65)C2)C1 (stereo not drawn) (tested in a mixture with another compound)
- T/C (dose: 0.12 mg/kg/injection, schedule: Q04DX003 (ip), vehicle: water): 115 % of control
- T/C (dose: 0.13 mg/kg/injection, schedule: Q01DX009 (ip), vehicle: water): 162 % of control
- T/C (dose: 0.18 mg/kg/injection, schedule: Q04DX003 (ip), vehicle: saline): 159 % of control
- T/C (dose: 0.22 mg/kg/injection, schedule: Q01DX009 (ip), vehicle: water): 183 % of control
- T/C (dose: 0.25 mg/kg/injection, schedule: Q04DX003 (ip), vehicle: saline): 108 % of control
- T/C (dose: 0.25 mg/kg/injection, schedule: Q04DX003 (ip), vehicle: water): 115 % of control
- T/C (dose: 0.3 mg/kg/injection, schedule: Q04DX003 (ip), vehicle: saline): 177 % of control
- T/C (dose: 0.36 mg/kg/injection, schedule: Q01DX009 (ip), vehicle: water): 151 % of control and 184 % of control
- T/C (dose: 0.39 mg/kg/injection, schedule: Q04DX003 (ip), vehicle: saline): 176 % of control
- T/C (dose: 0.5 mg/kg/injection, schedule: Q04DX003 (ip), vehicle: saline): 109 % of control and 236 % of control
- T/C (dose: 0.5 mg/kg/injection, schedule: Q04DX003 (ip), vehicle: water): 118 % of control
- T/C (dose: 0.52 mg/kg/injection, schedule: Q04DX003 (ip), vehicle: water): 183 % of control
- T/C (dose: 0.6 mg/kg/injection, schedule: Q01DX009 (ip), vehicle: water): 241 % of control
- T/C (dose: 0.6 mg/kg/injection, schedule: Q04DX003 (ip), vehicle: saline): 119 % of control
- T/C (dose: 0.65 mg/kg/injection, schedule: Q04DX003 (ip), vehicle: saline): 172 % of control
- T/C (dose: 0.86 mg/kg/injection, schedule: Q04DX003 (ip), vehicle: water): 166 % of control and 202 % of control
- T/C (dose: 1.0 mg/kg/injection, schedule: Q04DX003 (ip), vehicle: saline): 168 % of control
- T/C (dose: 1.04 mg/kg/injection, schedule: Q01DX001 (ip), vehicle: water): 122 % of control
- T/C (dose: 1.08 mg/kg/injection, schedule: Q04DX003 (ip), vehicle: saline): 206 % of control
- T/C (dose: 1.44 mg/kg/injection, schedule: Q04DX003 (ip), vehicle: water): 151 % of control and 275 % of control
- T/C (dose: 1.73 mg/kg/injection, schedule: Q01DX001 (ip), vehicle: water): 165 % of control
- T/C (dose: 1.8 mg/kg/injection, schedule: Q04DX003 (ip), vehicle: saline): 241 % of control
- T/C (dose: 2.0 mg/kg/injection, schedule: Q04DX003 (ip), vehicle: saline): 180 % of control
- T/C (dose: 2.9 mg/kg/injection, schedule: Q01DX001 (ip), vehicle: water): 166 % of control
- T/C (dose: 4.0 mg/kg/injection, schedule: Q04DX003 (ip), vehicle: saline): 181 % of control
- T/C (dose: 4.8 mg/kg/injection, schedule: Q01DX001 (ip), vehicle: water): 152 % of control and 194 % of control
- T/C (dose: 8.0 mg/kg/injection, schedule: Q01DX001 (ip), vehicle: water): 211 % of control
- T/C (dose: 37.5 micrograms/kg/injection, schedule: Q01DX009 (ip), vehicle: water): 98 % of control
- T/C (dose: 60.0 micrograms/kg/injection, schedule: Q01DX009 (ip), vehicle: saline): 151 % of control
- T/C (dose: 75.0 micrograms/kg/injection, schedule: Q01DX009 (ip), vehicle: water): 107 % of control
- T/C (dose: 100.0 micrograms/kg/injection, schedule: Q01DX009 (ip), vehicle: saline): 152 % of control
- T/C (dose: 130.0 micrograms/kg/injection, schedule: Q01DX009 (ip), vehicle: water): 120 % of control
- T/C (dose: 150.0 micrograms/kg/injection, schedule: Q01DX009 (ip), vehicle: water): 111 % of control
- T/C (dose: 170.0 micrograms/kg/injection, schedule: Q01DX009 (ip), vehicle: saline): 226 % of control
- T/C (dose: 216.0 micrograms/kg/injection, schedule: Q01DX009 (ip), vehicle: saline): 173 % of control
- T/C (dose: 216.0 micrograms/kg/injection, schedule: Q01DX009 (ip), vehicle: water): 150 % of control and 165 % of control
- T/C (dose: 300.0 micrograms/kg/injection, schedule: Q01DX009 (ip), vehicle: water): 123 % of control
- T/C (dose: 360.0 micrograms/kg/injection, schedule: Q01DX009 (ip), vehicle: saline): 183 % of control
- T/C (dose: 360.0 micrograms/kg/injection, schedule: Q01DX009 (ip), vehicle: water): 155 % of control
- T/C (dose: 389.0 micrograms/kg/injection, schedule: Q04DX003 (ip), vehicle: saline): 187 % of control and 207 % of control
- T/C (dose: 600.0 micrograms/kg/injection, schedule: Q01DX009 (ip), vehicle: saline): 191 % of control
- T/C (dose: 600.0 micrograms/kg/injection, schedule: Q01DX009 (ip), vehicle: water): 155 % of control and 175 % of control
- T/C (dose: 648.0 micrograms/kg/injection, schedule: Q04DX003 (ip), vehicle: saline): 179 % of control and 258 % of control
- T/C (dose: 1080.0 micrograms/kg/injection, schedule: Q04DX003 (ip), vehicle: saline): 161 % of control and 214 % of control and 225 % of control
- T/C (dose: 1800.0 micrograms/kg/injection, schedule: Q04DX003 (ip), vehicle: saline): 195 % of control and 248 % of control and 303 % of control
- T/C (dose: 3000.0 micrograms/kg/injection, schedule: Q04DX003 (ip), vehicle: saline): 152 % of control and 243 % of control and 308 % of control

Structure (SMILES): COc1ccccc1N=NC(C#N)C(N)=O (stereo not drawn)
- T/C (dose: 6.25 mg/kg/injection, schedule: Q01DX009 (ip), vehicle: saline with Tween-80): 91 % of control
- T/C (dose: 12.5 mg/kg/injection, schedule: Q01DX009 (ip), vehicle: saline with Tween-80): 94 % of control
- T/C (dose: 25.0 mg/kg/injection, schedule: Q01DX009 (ip), vehicle: saline with Tween-80): 87 % of control
- T/C (dose: 50.0 mg/kg/injection, schedule: Q01DX009 (ip), vehicle: saline with Tween-80): 112 % of control

Structure (SMILES): CCCCOc1ccc(OCCCCCCCCCC[N+](C)(C)C)cc1
- T/C (dose: 1.56 mg/kg/injection, schedule: Q01DX009 (ip), vehicle: Klucel (hydroxypropylcellulose) (HPC)): 98 % of control
- T/C (dose: 3.12 mg/kg/injection, schedule: Q01DX009 (ip), vehicle: Klucel (hydroxypropylcellulose) (HPC)): 96 % of control
- T/C (dose: 6.25 mg/kg/injection, schedule: Q01DX009 (ip), vehicle: Klucel (hydroxypropylcellulose) (HPC)): 96 % of control
- T/C [1]: 93 % of control

Structure (SMILES): O=C1NC(=O)C2C3C=CC(C3)C12 (stereo not drawn)
- T/C (dose: 25.0 mg/kg/injection, schedule: Q01DX009 (ip), vehicle: saline): 105 % of control
- T/C (dose: 50.0 mg/kg/injection, schedule: Q01DX009 (ip), vehicle: saline): 105 % of control
- T/C (dose: 100.0 mg/kg/injection, schedule: Q01DX009 (ip), vehicle: saline): 113 % of control
